Source: patent US5112818A, “2-(2-cyclopropylpyrrolidin-4-ylthio)carbapenhem derivatives” (Banyu Pharmaceutical Co., Ltd., priority 1989, dated 1992)
In brackets after ≈: the same amount, converted by molar mass. Read-outs that look alike come from different tables or passages of the source.

Experiments:
[1] = test system: S. aureus 209P NIHJ JC1; assay: in vitro antibacterial activity, agar plate dilution method (MIC); type: cell-based; settings: Staphylococcus aureus, 10^6 CFU/ml, 37° C., 16 hours
Experimental: (§1) One platinum loopful of each test microorganism incubated overnight in Mueller Hinton broth, was inoculated to Mueller Hinton agara (inoculum size: 10^6 CFU/ml). Such culture media contained antibacterial agents in various concentrations. After incubation at 37° C. for 16 hours, the minimum inhibitory concentrations (MIC: μg/ml) were measured.

[2] = test system: S. aureus JS1; assay: as above; type: cell-based; settings: Staphylococcus aureus; 10^6 CFU/ml; 37° C., 16 hours; S. aureus JS1, lactamase producing microorganism
Experimental: as §1

[3] = test system: S. aureus MB4970; assay: as above; type: cell-based; settings: Staphylococcus aureus, 10^6 CFU/ml, 37° C., 16 hours
Experimental: as §1

[4] = test system: Meth-R. S. aureus; assay: relative antibacterial potency, disc diffusion test (Bauer et al.); type: cell-based; settings: ratio to thienamycin (=1.0); larger value = higher activity
Experimental: The compounds of the present invention show strong antibacterial activities against various gram positive bacteria and gram negative bacteria. As representative examples, the antibacterial activities of the compounds of the present invention described in the Examples, were measured by a disc diffusion test by the method of Bauer et al. (Amer. J. Clin. Pathol., vol. 45, p. 493 (1966)). Thienamycin or imipenem was used as the internal standard.
MIC of each test compound was calculated from the diameter of the inhibition ring formed by the disc containing the test compound by using the calculation formula reported by Humphrey and Lightbown (J. Gen. Microbiol., vol. 7, p. 129 (1952)). For each microorganism, a geometrical average of MIC was obtained, and the activity ratio to thienamycin was calculated.
The antibacterial activities are represented by the ratio to thienamycin (=1.0), whereby the larger the numerical value, the higher the activities.

[5] = in words; background art; cited from earlier work
[6] = test system: gram positive bacteria and gram negative bacteria; settings: in words, cited from earlier work
[7] = test system: β-lactamase; settings: in words; cited from earlier work
[8] = test system: kidney; settings: in words; due to the decomposition products; cited from earlier work
[9] = test system: highly methicillin resistant Staphylococcus aureus; settings: in words; clinical field; cited from earlier work
[10] = test system: imipenem resistant Pseudomonas aeruginosa; settings: in words; clinical field; cited from earlier work
[11] = test system: renal dehydropeptidase I; settings: cited from earlier work
[12] = test system: DHP-I; assay: DHP-I susceptibility (method by Kropp et al.); settings: ratio to imipenem (=1.0); smaller value = higher stability
From the text: (§2) The DHP-I susceptibility was quantitatively analyzed by the method by Kropp et al., Antimicrob.,- Agents Chemother., vol. 22, p. 62-70 (1982), whereby the smaller the numerical value representing the ratio to imipenem (=1.0), the higher the stability.

[13] = test system: DHP-I
From the text: as §2

[14] = test system: methicillin resistant Staphylococcus aureus; settings: in words; background art; cited from earlier work
[15] = in words; cited from earlier work

## C[C@@H](O)[C@H]1C(=O)N2C(C(=O)O)=C(S[C@@H]3CN[C@H](C4CC4C(N)=O)C3)[C@H](C)[C@H]12 (single isomer, unassigned) [Example 6]
[1]
  MIC: 0.025 µg/mL (≈ 0.0632 µM)
[2]
  MIC: 0.78 µg/mL (≈ 1.97 µM)
[3]
  MIC: 0.05 µg/mL (≈ 0.126 µM)
[4]
  Relative antibacterial potency, Meth-R. S. aureus: 5.41

## C[C@@H](O)[C@H]1C(=O)N2C(C(=O)O)=C(SCCN=CN)C[C@H]12 [imipenem]
[4]
  Relative antibacterial potency, Meth-R. S. aureus: 2.57
[5]
  chemical stability: remarkably improved over thienamycin
[6]; various types of bacteria
  antibacterial activities relative to thienamycin: equal or higher level than thienamycin
[7]
  β-lactamase resistance: has β-lactamase resistance
[8]
  toxicity against the kidney: presents toxicity against the kidney due to the decomposition products
[9]
  treating effects against imipenem-resistant highly methicillin resistant Staphylococcus aureus: does not show adequate treating effects
[10]
  treating effects against imipenem resistant Pseudomonas aeruginosa: does not show adequate treating effects
[11]; in words, background art
  decomposition by / stability against DHP-I: likely to be decomposed by DHP-I in the human kidney
[12]
  DHP-I susceptibility: 1.0

## C[C@@H](O)[C@H]1C(=O)N2C(C(=O)O)=C(S[C@@H]3CN[C@H](C(=O)N(C)C)C3)[C@H](C)[C@H]12 [meropenem]
[4]
  Relative antibacterial potency, Meth-R. S. aureus: 3.15
[13]
  DHP-I susceptibility: 0.12
[14]
  antibacterial activities against highly methicillin resistant Staphylococcus aureus: not adequate
[11]
  decomposition by / stability against DHP-I: stability against DHP-I substantially improved

## C[C@@H](O)[C@H]1C(=O)N2C(C(=O)O)=C(SCCN)C[C@H]12 [thienamycin]
[5]
  chemical stability: chemically unstable
[15]
  recovery rate in the urine: low
[6]; gram positive and gram negative bacteria
  antibacterial activities: strong antibacterial activities over a wide range against gram positive bacteria and gram negative bacteria
[11]; in words, background art
  decomposition by / stability against DHP-I: likely to be decomposed by a certain enzyme in vivo such as renal dehydropeptidase I
